Source: publication PMC6697623 (2019)

System: Corn wild type (RNA 1) (RNA, aptamer) GGCGCGAGGAAGGAGGUCUGAGGAGGUCACUGCGCC
Assay: fluorescence titration, RNA varied
Settings: 100 mM KCl, 10 mM MgCl2; pH 7.5, 20 °C; 2.5 μM TO

CN1C(=Cc2cc[n+](C)c3ccccc23)Sc2ccccc21
apparent Kd: 1.4 µM
